Measured values: patent US8048883B2, “Polymorphic form of imatinib mesylate and a process for its preparation” (Natco Pharma Limited, priority 2004, dated 2011)
Entries after “also recorded” stand apart in the source; their conditions may differ. Read-outs that look alike come from different tables or passages of the source.

How the values were obtained:
Type in all cases: physicochemical
[1] = Comparative dissolution of Imatinib mesylate capsules 100 mg (α2 and β-forms)
[2] = Heat stability of α2-crystal form, examined by XRPD; conditions: for Polymorph form detected after heating: XRPD
Text: Pure α2-crystal polymorph 1 gm prepared by the process described in Example 1 was taken in a boiling test tube and heated gradually in oil bath the substance was examined by XRPD. The results are tabulated below

[3] = Stability of α2 form under accelerated stress conditions in bulk and formulated capsule, XRPD
Hygroscopicity = test: Hygroscopicity
[4] = Flow properties / suitability for solid dosage forms
[5] = Stability of the polymorphic form (metastable or stable); conditions: room temperature and higher temperatures up to 120° C.
[6] = 0 Month at 40 ± 2° C./75 ± 5% RH
[7] = 1 Month at 40 ± 2° C./75 ± 5% RH
[8] = 2 Months at 40 ± 2° C./75 ± 5% RH
[9] = 3 Months at 40 ± 2° C./75 ± 5% RH
[10] = 6 Months at 40 ± 2° C./75 ± 5% RH

For `Cc1ccc(NC(=O)c2ccc(CN3CCN(C)CC3)cc2)cc1Nc1nccc(-c2cccnc2)n1` [α2 form, N-{5-[4-(4-methylpiperazino-methyl)-benzoylamido]-2-methylphenyl}-4-(3-pyridyl) 2-pyrimidine-amine], the “Dissolution of the capsule formulation compared with the β-form formulation” value [1] was “better dissolution characteristics”, the “Dissolution in capsule formulation” value ([1]; during 30 min) was “Dissolution of more than 95%” and the “Dissolution of the capsule formulation compared with the β-form formulation” value ([1]; listed as α2-form) was “comparable and even better”. For the same compound, the “Polymorph form detected after heating” value ([2]; 110° C., 2 hours) was “α2 form”, the “Polymorph form detected after heating” value ([2]; 110° C., 4 hours) was “α2 form” and the Heat stability ([2]; 120° C. for 6 hours) was “non-metastable and stable; also recorded: fairly stable to heat”. The “Polymorph form detected after heating” value ([2]; 120° C., 2 hours) was “α2 form”, the “Polymorph form detected after heating” value ([2]; 120° C., 4 hours) was “α2 form” and the “Polymorph form detected after heating” value ([2]; 120° C., 6 hours) was “α2 form”. For the same compound, the “Polymorph content of bulk imatinib mesylate, polymorph form detected” value [3, 6] was “α2 form”, the “Polymorph content of imatinib mesylate in formulated capsule, polymorph form detected” value (shortened to “Polymorph content of imatinib mesylate”) [3, 6] was “α2 form” and the “Polymorph content of bulk imatinib mesylate, polymorph form detected” value [3, 7] was “α2 form”. For the same compound, the “Polymorph content of imatinib mesylate” value [3, 7] was “α2 form”, the “Polymorph content of bulk imatinib mesylate, polymorph form detected” value [3, 8] was “α2 form” and the “Polymorph content of imatinib mesylate” value [3, 8] was “α2 form”. The “Polymorph content of bulk imatinib mesylate, polymorph form detected” value [3, 9] was “α2 form”, the “Polymorph content of imatinib mesylate” value [3, 9] was “α2 form” and the “Polymorph content of bulk imatinib mesylate, polymorph form detected” value [3, 10] was “α2 form”. For the same compound, the “Polymorph content of imatinib mesylate” value [3, 10] was “α2 form”, the “Conversion to β-polymorphic form in capsule” value ([3]; about 40° C. and about 75% relative humidity for 6 months) was “does not show any significant conversion” and the “Conversion over time to form β” value ([3]; bulk form or dosage form, about 40° and about 75% relative humidity, at least about 6 months) was “does not substantially convert”. The “Stability at normal and accelerated stress conditions” value ([3]; in bulk and formulated capsule form) was “stable”, the Hygroscopicity (Hygroscopicity) was “Non-hygroscopic” and the “Flow properties of the formulations, α2 form compared with β-form” value ([4]; same excipient composition) was “comparable”. For the same compound, the Flow properties ([4]; suitability for pharmaceutical solid dosage forms) was “Found to be well suited for”, the Stability ([5]; listed as α2) was “stable” and the Stability ([5]; listed as α2-form) was “stable”.
